Measurements taken from PubChem BioAssay AID1259407 (Chemical Carcinogenesis Research Information System (CCRIS), 2018).
The source made the active and inactive calls. No rule for the calls is given here.

Test system: CCRIS mutagenicity, Ames/micronucleus/aberration tests
Test: CCRIS mutagenicity studies
[1] = Test System: AMES SALMONELLA TYPHIMURIUM, Strain/Indicator: TA98, Metabolic Activation: NONE, Method: PREINCUBATION
[2] = Test System: AMES SALMONELLA TYPHIMURIUM, Strain/Indicator: TA100, Metabolic Activation: NONE, Method: PREINCUBATION

Measured: mutagenic call

COc1cccc(N)c1
active: End Point: IN VITRO CHROMOSOMAL ABERRATIONS, Test System: CHINESE HAMSTER OVARY CELLS, Metabolic Activation: NONE active; positive
inactive: End Point: IN VITRO CHROMOSOMAL ABERRATIONS, Test System: CHINESE HAMSTER OVARY CELLS, Metabolic Activation: RAT, LIVER, S-9, AROCLOR 1254 inactive; negative | Test System: AMES SALMONELLA TYPHIMURIUM, Strain/Indicator: TA98, Metabolic Activation: HAMSTER, LIVER, S-9, AROCLOR 1254, Method: PREINCUBATION inactive; negative | [1] inactive; negative | Test System: AMES SALMONELLA TYPHIMURIUM, Strain/Indicator: TA98, Metabolic Activation: RAT, LIVER, S-9, AROCLOR 1254, Method: PREINCUBATION inactive; negative | Test System: AMES SALMONELLA TYPHIMURIUM, Strain/Indicator: TA100, Metabolic Activation: HAMSTER, LIVER, S-9, AROCLOR 1254, Method: PREINCUBATION inactive; negative | [2] inactive; negative | Test System: AMES SALMONELLA TYPHIMURIUM, Strain/Indicator: TA100, Metabolic Activation: RAT, LIVER, S-9, AROCLOR 1254, Method: PREINCUBATION inactive; negative | Test System: AMES SALMONELLA TYPHIMURIUM, Strain/Indicator: TA102, Metabolic Activation: NONE, Method: STANDARD PLATE inactive; negative | Test System: AMES SALMONELLA TYPHIMURIUM, Strain/Indicator: TA1535, Metabolic Activation: HAMSTER, LIVER, S-9, AROCLOR 1254, Method: PREINCUBATION inactive; negative | Test System: AMES SALMONELLA TYPHIMURIUM, Strain/Indicator: TA1535, Metabolic Activation: NONE, Method: PREINCUBATION inactive; negative | Test System: AMES SALMONELLA TYPHIMURIUM, Strain/Indicator: TA1535, Metabolic Activation: RAT, LIVER, S-9, AROCLOR 1254, Method: PREINCUBATION inactive; negative | Test System: AMES SALMONELLA TYPHIMURIUM, Strain/Indicator: TA1537, Metabolic Activation: HAMSTER, LIVER, S-9, AROCLOR 1254, Method: PREINCUBATION inactive; negative | Test System: AMES SALMONELLA TYPHIMURIUM, Strain/Indicator: TA1537, Metabolic Activation: NONE, Method: PREINCUBATION inactive; negative | Test System: AMES SALMONELLA TYPHIMURIUM, Strain/Indicator: TA1537, Metabolic Activation: RAT, LIVER, S-9, AROCLOR 1254, Method: PREINCUBATION inactive; negative | Test System: AMES SALMONELLA TYPHIMURIUM, Strain/Indicator: TA2638, Metabolic Activation: NONE, Method: STANDARD PLATE inactive; negative | Test System: E. COLI, Strain/Indicator: WP2 (PKM101), Metabolic Activation: NONE, Method: STANDARD PLATE inactive; negative | Test System: E. COLI, Strain/Indicator: WP2 UVRA (PKM101), Metabolic Activation: NONE, Method: STANDARD PLATE inactive; negative

Cc1ccc2c(c1N)C(=O)c1ccccc1C2=O
inactive: [1] inactive; negative | Test System: AMES SALMONELLA TYPHIMURIUM, Strain/Indicator: TA100, Metabolic Activation: HAMSTER, LIVER, S-9, AROCLOR 1254 (30%), Method: PREINCUBATION inactive; negative | [2] inactive; negative
active: Test System: AMES SALMONELLA TYPHIMURIUM, Strain/Indicator: TA98, Metabolic Activation: HAMSTER, LIVER, S-9, AROCLOR 1254 (30%), Method: PREINCUBATION active; positive | Test System: AMES SALMONELLA TYPHIMURIUM, Strain/Indicator: TA98, Metabolic Activation: RAT, LIVER, S-9, AROCLOR 1254 (30%), Method: PREINCUBATION active; positive | Test System: AMES SALMONELLA TYPHIMURIUM, Strain/Indicator: TA100, Metabolic Activation: RAT, LIVER, S-9, AROCLOR 1254 (30%), Method: PREINCUBATION active; positive | Test System: AMES SALMONELLA TYPHIMURIUM, Strain/Indicator: TA1537 R+, Metabolic Activation: NONE, Method: STANDARD PLATE active; positive | Test System: AMES SALMONELLA TYPHIMURIUM, Strain/Indicator: TA1537 R+, Metabolic Activation: RAT, LIVER, S-9, AROCLOR 1254, Method: STANDARD PLATE active; positive | Test System: MOUSE LYMPHOMA, Strain/Indicator: L5178Y (TK+/TK-), Metabolic Activation: NONE, Method: SUSPENSION/PLATE active; positive

O=[N+]([O-])c1ccc(-c2ccc([N+](=O)[O-])cc2)cc1
inactive: Test System: AMES SALMONELLA TYPHIMURIUM, Strain/Indicator: TA98(NR), Metabolic Activation: NONE, Method: STANDARD PLATE inactive; negative
active: Test System: AMES SALMONELLA TYPHIMURIUM, Strain/Indicator: TA98(1,8-DNP6), Metabolic Activation: NONE, Method: STANDARD PLATE active; positive | [1] active; positive | Test System: AMES SALMONELLA TYPHIMURIUM, Strain/Indicator: TA98, Metabolic Activation: NONE, Method: STANDARD PLATE active; positive | Test System: AMES SALMONELLA TYPHIMURIUM, Strain/Indicator: TA98, Metabolic Activation: RAT, LIVER, S-9, PCB (10%), Method: PREINCUBATION active; positive
